From PubChem BioAssay (NCI)
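Step 1: Grow cells in 96-well plates. Step 2: Expose to compound for 48 hours at 5 concentrations. Step 3: Interpolate endpoints linearly; if unreached, use highest concentration. TGI: concentration producing complete growth inhibition.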

Experiments:
Assay in all cases: inhibition of tumour cell growth, NCI panel, 48 h
786-0 renal = tested on: 786-0 renal
A549 NSCLC = tested on: A549 NSCLC
ACHN renal = tested on: ACHN renal
CAKI-1 renal = tested on: CAKI-1 renal
CCRF-CEM leukemia = tested on: CCRF-CEM leukemia
COLO 205 colon = tested on: COLO 205 colon
DLD-1 colon = tested on: DLD-1 colon
DMS 273 small cell lung = tested on: DMS 273 small cell lung
EKVX NSCLC = tested on: EKVX NSCLC
HCC-2998 colon = tested on: HCC-2998 colon
HCT-116 colon = tested on: HCT-116 colon
HCT-15 colon = tested on: HCT-15 colon
HL-60(TB) leukemia = tested on: HL-60(TB) leukemia
HOP-92 NSCLC = tested on: HOP-92 NSCLC
HT29 colon = tested on: HT29 colon
K-562 leukemia = tested on: K-562 leukemia
KM12 colon = tested on: KM12 colon
KM20L2 colon = tested on: KM20L2 colon
LOX IMVI melanoma = tested on: LOX IMVI melanoma
LXFL 529 NSCLC = tested on: LXFL 529 NSCLC
M14 melanoma = tested on: M14 melanoma
M19-MEL melanoma = tested on: M19-MEL melanoma
MALME-3M melanoma = tested on: MALME-3M melanoma
MOLT-4 leukemia = tested on: MOLT-4 leukemia
NCI-H226 lung = tested on: NCI-H226 lung
NCI-H23 lung = tested on: NCI-H23 lung
NCI-H460 lung = tested on: NCI-H460 lung
NCI-H522 lung = tested on: NCI-H522 lung
OVCAR-3 ovarian = tested on: OVCAR-3 ovarian
OVCAR-4 ovarian = tested on: OVCAR-4 ovarian
OVCAR-5 ovarian = tested on: OVCAR-5 ovarian
OVCAR-8 ovarian = tested on: OVCAR-8 ovarian
RPMI-8226 leukemia = tested on: RPMI-8226 leukemia
RXF 393 renal = tested on: RXF 393 renal
RXF-631 renal = tested on: RXF-631 renal
SF-268 CNS = tested on: SF-268 CNS
SF-295 CNS = tested on: SF-295 CNS
SF-539 CNS = tested on: SF-539 CNS
SK-MEL-2 melanoma = tested on: SK-MEL-2 melanoma
SK-MEL-28 melanoma = tested on: SK-MEL-28 melanoma
SN12C renal = tested on: SN12C renal
SNB-75 CNS = tested on: SNB-75 CNS
SR leukemia = tested on: SR leukemia
SW-620 colon = tested on: SW-620 colon
TK-10 renal = tested on: TK-10 renal
U251 CNS = tested on: U251 CNS
UACC-257 melanoma = tested on: UACC-257 melanoma
A498 renal = tested on: A498 renal
HOP-62 NSCLC = tested on: HOP-62 NSCLC
IGROV1 ovarian = tested on: IGROV1 ovarian
SK-MEL-5 melanoma = tested on: SK-MEL-5 melanoma
SK-OV-3 ovarian = tested on: SK-OV-3 ovarian
UACC-62 melanoma = tested on: UACC-62 melanoma
UO-31 renal = tested on: UO-31 renal
XF 498 CNS = tested on: XF 498 CNS

**Q.** What does the source list for NC(=O)CCC(Nc1c2ccccc2nc2ccccc12)C(=O)O (stereo not drawn)?
**A.** TGI (786-0 renal): > 100 µM; TGI (A549 NSCLC): > 100 µM; TGI (ACHN renal): > 100 µM; TGI (CAKI-1 renal): > 100 µM; TGI (CCRF-CEM leukemia): > 100 µM; TGI (COLO 205 colon): > 100 µM; TGI (DLD-1 colon): > 100 µM; TGI (DMS 273 small cell lung): > 100 µM; TGI (EKVX NSCLC): > 100 µM; TGI (HCC-2998 colon): > 100 µM; TGI (HCT-116 colon): > 100 µM; TGI (HCT-15 colon): > 100 µM; TGI (HL-60(TB) leukemia): > 100 µM; TGI (HOP-92 NSCLC): > 100 µM; TGI (HT29 colon): > 100 µM; TGI (K-562 leukemia): > 100 µM; TGI (KM12 colon): > 100 µM; TGI (KM20L2 colon): > 100 µM; TGI (LOX IMVI melanoma): > 100 µM; TGI (LXFL 529 NSCLC): > 100 µM; TGI (M14 melanoma): > 100 µM; TGI (M19-MEL melanoma): > 100 µM; TGI (MALME-3M melanoma): > 100 µM; TGI (MOLT-4 leukemia): > 100 µM; TGI (NCI-H226 lung): > 100 µM; TGI (NCI-H23 lung): > 100 µM; TGI (NCI-H460 lung): > 100 µM; TGI (NCI-H522 lung): > 100 µM; TGI (OVCAR-3 ovarian): > 100 µM; TGI (OVCAR-4 ovarian): 80.8 µM; TGI (OVCAR-5 ovarian): > 100 µM; TGI (OVCAR-8 ovarian): > 100 µM; TGI (RPMI-8226 leukemia): > 100 µM; TGI (RXF 393 renal): > 100 µM; TGI (RXF-631 renal): > 100 µM; TGI (SF-268 CNS): > 100 µM; TGI (SF-295 CNS): > 100 µM; TGI (SF-539 CNS): > 100 µM; TGI (SK-MEL-2 melanoma): > 100 µM; TGI (SK-MEL-28 melanoma): > 100 µM; TGI (SN12C renal): > 100 µM; TGI (SNB-75 CNS): > 100 µM; TGI (SR leukemia): > 100 µM; TGI (SW-620 colon): > 100 µM; TGI (TK-10 renal): > 100 µM; TGI (U251 CNS): > 100 µM; TGI (UACC-257 melanoma): > 100 µM

**Q.** What does the source list for CCOC(=O)N1c2c(ccn2C)-c2ccn(C)c2N1C(=O)OCC?
**A.** TGI (786-0 renal): 23.1 µM; TGI (A498 renal): > 100 µM; TGI (A549 NSCLC): 39.4 µM; TGI (ACHN renal): 29.6 µM; TGI (CAKI-1 renal): 44.8 µM; TGI (CCRF-CEM leukemia): 13.8 µM; TGI (COLO 205 colon): 57.1 µM; TGI (DLD-1 colon): 29.5 µM; TGI (HCC-2998 colon): 37.9 µM; TGI (HCT-116 colon): 29.4 µM; TGI (HCT-15 colon): 26.5 µM; TGI (HL-60(TB) leukemia): 26.7 µM; TGI (HOP-62 NSCLC): > 100 µM; TGI (HOP-92 NSCLC): 63.7 µM; TGI (HT29 colon): 30.1 µM; TGI (IGROV1 ovarian): 52.4 µM; TGI (K-562 leukemia): 42.4 µM; TGI (KM12 colon): 57.3 µM; TGI (KM20L2 colon): 27.8 µM; TGI (LOX IMVI melanoma): 25.6 µM; TGI (LXFL 529 NSCLC): 30.9 µM; TGI (M14 melanoma): 30.8 µM; TGI (M19-MEL melanoma): 80 µM; TGI (MALME-3M melanoma): 37.1 µM; TGI (MOLT-4 leukemia): 40.4 µM; TGI (NCI-H226 lung): 37.5 µM; TGI (NCI-H460 lung): 49.3 µM; TGI (NCI-H522 lung): 25 µM; TGI (OVCAR-3 ovarian): 27.1 µM; TGI (OVCAR-5 ovarian): 35.5 µM; TGI (OVCAR-8 ovarian): 27.9 µM; TGI (RPMI-8226 leukemia): 54.3 µM; TGI (RXF-631 renal): 45.8 µM; TGI (SF-268 CNS): 38.7 µM; TGI (SF-295 CNS): 29.7 µM; TGI (SF-539 CNS): 38.2 µM; TGI (SK-MEL-2 melanoma): 38.8 µM; TGI (SK-MEL-5 melanoma): > 100 µM; TGI (SK-OV-3 ovarian): 77.3 µM; TGI (SN12C renal): 29.6 µM; TGI (SNB-75 CNS): 33.7 µM; TGI (SR leukemia): 43.8 µM; TGI (SW-620 colon): 28.6 µM; TGI (UACC-62 melanoma): 31.3 µM; TGI (UO-31 renal): 35.4 µM; TGI (XF 498 CNS): 30.7 µM
